Experimental data from ChEMBL document CHEMBL5365540, “Structure-activity relationship studies and biological properties evaluation of peptidic NRP-1 ligands: Investigation of N-terminal cysteine importance” (Bioorg Med Chem, 2023).
Each block holds one compound with its values, some of them ahead of it. The source made the active and inactive calls. The rule behind the calls is not given here. Where a SMILES comes first, the peptide text is derived from it. Side-chain parts run from the residue outwards. [ ]: non-standard residue; d: D form. The star is where a group is joined. ξ: configuration not given here. Biotin = O=C1N[C@H]2[C@H](CS[C@H]2CCCCC(=O)*)N1; Oic(3aξ,7aξ) = O=C(O)[C@@H]1CC2CCCCC2N1; hArg = N=C(N)NCCCC[C@H](N)C(=O)O; Aun = NCCCCCCCCCCC(=O)O; Dab = NCC[C@H](N)C(=O)O; ξK = NCCCCC(N)C(=O)O

Experiments:
Cell membrane [1] = experiment: Binding affinity to human MDA-MB-231 cell membrane at 59 uM preincubated for 15 mins at 4 degC followed by compound washout and further incubated for 5 mins with subsequent addition of compound at 37 degC by FITC-streptavidin staining based flow cytometry analysis; type: subcellular; conditions: time 20.0 min
MDA-MB-231 [2] = experiment: Increase in NRP-1 expression in human MDA-MB-231 cell membrane at 5.9 uM preincubated for 15 mins at 4 degC followed by compound washout and further incubated for 60 mins with subsequent addition of compound at 37 degC by FITC-streptavidin staining based flow cytometry analysis; type: functional; conditions: time 75.0 min
MDA-MB-231 [3] = experiment: Increase in NRP-1 expression in human MDA-MB-231 cell membrane at 59 uM preincubated for 15 mins at 4 degC followed by compound washout and further incubated for 5 mins with subsequent addition of compound at 37 degC by FITC-streptavidin staining based flow cytometry analysis; type: functional; conditions: time 20.0 min
[4] = target: Neuropilin-1 (Homo sapiens) (UniProt O14786); experiment: Binding affinity to NRP-1 in human MDA-MB-435 cells at 12.5 to 100 ug/ml measured after 15 mins by FITC-streptavidin staining based flow cytometry analysis; type: cell-based; conditions: dose 12.5-100 µg/ml
Neuropilin-1 (Homo sapiens), sequence (O14786 whole entry): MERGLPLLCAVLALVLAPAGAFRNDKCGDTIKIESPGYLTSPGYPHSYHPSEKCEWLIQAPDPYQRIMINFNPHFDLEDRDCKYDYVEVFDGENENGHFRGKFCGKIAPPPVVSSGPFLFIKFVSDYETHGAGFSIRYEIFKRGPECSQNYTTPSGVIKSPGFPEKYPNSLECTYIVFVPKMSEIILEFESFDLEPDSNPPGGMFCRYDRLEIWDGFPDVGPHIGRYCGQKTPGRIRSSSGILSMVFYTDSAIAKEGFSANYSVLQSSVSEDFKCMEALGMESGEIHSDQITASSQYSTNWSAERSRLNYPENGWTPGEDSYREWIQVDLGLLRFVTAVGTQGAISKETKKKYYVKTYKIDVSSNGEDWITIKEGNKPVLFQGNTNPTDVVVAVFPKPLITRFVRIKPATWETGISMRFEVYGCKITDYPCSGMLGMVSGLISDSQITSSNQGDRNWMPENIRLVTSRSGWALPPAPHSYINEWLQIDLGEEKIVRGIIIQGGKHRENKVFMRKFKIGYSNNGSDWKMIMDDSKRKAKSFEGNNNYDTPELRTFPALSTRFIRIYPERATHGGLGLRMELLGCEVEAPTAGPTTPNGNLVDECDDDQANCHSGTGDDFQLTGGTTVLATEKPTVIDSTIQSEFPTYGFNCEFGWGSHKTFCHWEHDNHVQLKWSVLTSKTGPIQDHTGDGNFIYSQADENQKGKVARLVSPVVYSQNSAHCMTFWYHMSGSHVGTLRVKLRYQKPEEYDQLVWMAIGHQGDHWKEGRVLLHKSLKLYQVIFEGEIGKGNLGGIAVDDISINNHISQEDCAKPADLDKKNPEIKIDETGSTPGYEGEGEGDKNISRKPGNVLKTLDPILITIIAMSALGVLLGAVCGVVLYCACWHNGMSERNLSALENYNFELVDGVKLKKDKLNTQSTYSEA

Cell membrane [5] = experiment: Binding affinity to human MDA-MB-231 cell membrane at 59 uM measured after 15 mins at 4 degC by Alexa Fluor 594-streptavidin staining based fluorescence microscopy; type: subcellular
[6] = target: Neuropilin-1 (Homo sapiens) (UniProt O14786); experiment: Binding affinity to NRP-1 in human MDA-MB-231 cells at 12.5 to 100 ug/ml measured after 15 mins by FITC-streptavidin staining based flow cytometry analysis; type: cell-based; conditions: dose 12.5-100 µg/ml
Cell membrane [7] = experiment: Binding affinity to human MDA-MB-231 cell membrane at 59 uM preincubated for 15 mins at 4 degC followed by compound washout and further incubated for 5 mins with subsequent addition of compound at 37 degC by Alexa Fluor 594-streptavidin staining based fluorescence microscopy; type: subcellular; conditions: time 20.0 min
MDA-MB-231 [8] = experiment: Increase in NRP-1 expression in human MDA-MB-231 cell membrane at 59 uM preincubated for 15 mins at 4 degC followed by compound washout and further incubated for 60 mins with subsequent addition of compound at 37 degC by FITC-streptavidin staining based flow cytometry analysis; type: functional; conditions: time 75.0 min
VEGA-NRP1 (Homo sapiens) = VEGA-NRP1 (Homo sapiens) (UniProt P15692+O14786); experiment: Inhibition of biotinylated-VEGFA165 (unknown origin) binding to C-terminal 6-His tagged human NRP-1 (Phe22 to Lys644 residues) expressed in mouse NS0 cells at 100 uM measured after 2 hrs by chemiluminescence assay relative to control; type: cell-based
VEGA-NRP1 (Homo sapiens), sequence (O14786 22-923 partner limits assumed, one chain of several): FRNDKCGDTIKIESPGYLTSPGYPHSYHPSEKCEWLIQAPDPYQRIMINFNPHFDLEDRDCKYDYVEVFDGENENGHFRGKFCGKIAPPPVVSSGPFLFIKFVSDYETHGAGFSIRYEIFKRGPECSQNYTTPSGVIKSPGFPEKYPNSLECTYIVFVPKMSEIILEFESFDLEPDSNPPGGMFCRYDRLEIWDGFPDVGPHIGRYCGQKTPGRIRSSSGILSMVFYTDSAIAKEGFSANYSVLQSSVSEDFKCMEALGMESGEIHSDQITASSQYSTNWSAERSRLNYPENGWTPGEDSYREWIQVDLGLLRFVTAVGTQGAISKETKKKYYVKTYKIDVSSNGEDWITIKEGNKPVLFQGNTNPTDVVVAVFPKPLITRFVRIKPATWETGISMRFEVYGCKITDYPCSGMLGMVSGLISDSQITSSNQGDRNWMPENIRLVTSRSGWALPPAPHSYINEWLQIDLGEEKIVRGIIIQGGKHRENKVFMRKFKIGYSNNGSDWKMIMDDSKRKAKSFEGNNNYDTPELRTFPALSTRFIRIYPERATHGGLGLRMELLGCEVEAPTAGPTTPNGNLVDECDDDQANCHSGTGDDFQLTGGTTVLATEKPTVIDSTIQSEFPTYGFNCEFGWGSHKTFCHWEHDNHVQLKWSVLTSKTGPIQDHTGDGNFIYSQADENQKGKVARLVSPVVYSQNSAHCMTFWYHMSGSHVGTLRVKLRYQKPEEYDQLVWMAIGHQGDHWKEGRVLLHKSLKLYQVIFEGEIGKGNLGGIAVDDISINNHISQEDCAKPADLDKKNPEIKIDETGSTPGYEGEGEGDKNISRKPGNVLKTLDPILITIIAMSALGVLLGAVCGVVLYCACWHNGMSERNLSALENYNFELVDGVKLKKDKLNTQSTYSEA

[9] = Half-life in human serum by LC-SWATH-MS analysis; type: ADME, cell-free
Homo sapiens = species: Homo sapiens; experiment: Selectivity ratio of IC50 for inhibition of human biotinylated-VEGFA165 binding to recombinant human NRP-1 to IC50 for inhibition of human biotinylated-VEGFA165 binding to recombinant human NRP-2
[10] = target: VEGFR2-VEGA (Homo sapiens) (UniProt P15692+P35968); experiment: Inhibition of human biotinylated-VEGFA165 binding to recombinant human VEGFR2 measured after 2 hrs by chemiluminescent based ELISA; type: protein-complex assay
NRP2-VEGA = target: T1, NRP2-VEGA (Homo sapiens, UniProt O60462+P15692); experiment: Inhibition of human biotinylated-VEGFA165 binding to recombinant human NRP-2 measured after 2 hrs by chemiluminescent based ELISA; type: protein-complex assay
T1 sequence (P15692 whole entry): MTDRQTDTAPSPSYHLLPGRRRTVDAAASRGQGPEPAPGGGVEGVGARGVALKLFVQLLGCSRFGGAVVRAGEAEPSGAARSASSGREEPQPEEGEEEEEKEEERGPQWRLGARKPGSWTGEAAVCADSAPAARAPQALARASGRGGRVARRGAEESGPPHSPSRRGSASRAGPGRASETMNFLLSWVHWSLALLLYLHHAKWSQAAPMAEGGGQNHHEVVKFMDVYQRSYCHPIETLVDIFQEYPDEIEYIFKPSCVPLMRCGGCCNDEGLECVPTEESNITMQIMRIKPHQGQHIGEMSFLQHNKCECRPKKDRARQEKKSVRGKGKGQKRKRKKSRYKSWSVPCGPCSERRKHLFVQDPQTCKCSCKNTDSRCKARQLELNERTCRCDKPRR
T1 sequence (O60462 whole entry): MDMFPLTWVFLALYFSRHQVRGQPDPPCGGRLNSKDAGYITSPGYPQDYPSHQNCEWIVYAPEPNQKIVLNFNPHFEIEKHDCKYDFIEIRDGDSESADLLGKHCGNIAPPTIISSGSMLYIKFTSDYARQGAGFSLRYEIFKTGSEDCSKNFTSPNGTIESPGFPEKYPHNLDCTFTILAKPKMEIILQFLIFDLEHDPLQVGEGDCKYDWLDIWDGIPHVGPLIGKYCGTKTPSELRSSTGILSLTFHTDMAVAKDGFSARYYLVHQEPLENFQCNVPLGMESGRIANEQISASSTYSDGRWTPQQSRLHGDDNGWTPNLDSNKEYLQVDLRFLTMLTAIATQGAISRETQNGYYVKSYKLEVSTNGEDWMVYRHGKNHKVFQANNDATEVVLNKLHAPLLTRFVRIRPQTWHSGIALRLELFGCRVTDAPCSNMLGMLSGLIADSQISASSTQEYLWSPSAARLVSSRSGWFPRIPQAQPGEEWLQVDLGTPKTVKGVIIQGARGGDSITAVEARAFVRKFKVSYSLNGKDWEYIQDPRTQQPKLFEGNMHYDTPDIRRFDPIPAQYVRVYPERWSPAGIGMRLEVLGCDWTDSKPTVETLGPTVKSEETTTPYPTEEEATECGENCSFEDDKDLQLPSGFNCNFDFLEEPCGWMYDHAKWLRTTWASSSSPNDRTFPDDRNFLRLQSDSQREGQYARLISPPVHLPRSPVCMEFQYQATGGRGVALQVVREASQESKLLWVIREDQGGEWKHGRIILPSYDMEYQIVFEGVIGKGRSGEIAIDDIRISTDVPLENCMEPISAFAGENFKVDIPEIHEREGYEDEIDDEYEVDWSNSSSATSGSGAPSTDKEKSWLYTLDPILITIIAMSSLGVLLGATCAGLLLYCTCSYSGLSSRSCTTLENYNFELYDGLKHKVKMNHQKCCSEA

[11] = Stability in human serum assessed as compound degradation measured upto 96 hrs by LC-SWATH-MS analysis; type: ADME, cell-free
[12] = Stability in human serum assessed as parent compound remaining measured after 8 hrs by LC-SWATH-MS analysis; type: ADME, cell-free; conditions: read-out: Stability
MDA-MB-231 [13] = experiment: Increase in NRP-1 expression in human MDA-MB-231 cell membrane at 72 uM preincubated for 15 mins at 4 degC followed by compound washout and further incubated for 60 mins with subsequent addition of compound at 37 degC by FITC-streptavidin staining based flow cytometry analysis; type: functional; conditions: time 75.0 min
VEGA-NRP1 = VEGA-NRP1 (Homo sapiens, UniProt O14786); experiment: Inhibition of human biotinylated-VEGFA165 binding to recombinant human NRP-1 measured after 2 hrs by chemiluminescent based ELISA; type: protein assay
VEGA-NRP1, sequence (O14786 whole entry, one chain of several): as the sequence (O14786 whole entry) above

MDA-MB-231 [14] = experiment: Increase in NRP-1 expression in human MDA-MB-231 cell membrane at 7.2 uM preincubated for 15 mins at 4 degC followed by compound washout and further incubated for 60 mins with subsequent addition of compound at 37 degC by FITC-streptavidin staining based flow cytometry analysis; type: functional; conditions: time 75.0 min
[15] = target: VEGFR1-VEGA (Homo sapiens) (UniProt P15692+P17948); experiment: Inhibition of human biotinylated-VEGFA165 binding to recombinant human VEGFR1 measured after 2 hrs by chemiluminescent based ELISA; type: protein-complex assay
MDA-MB-231 [16] = experiment: Increase in NRP-1 expression in human MDA-MB-231 cell membrane at 72 uM preincubated for 15 mins at 4 degC followed by compound washout and further incubated for 5 mins with subsequent addition of compound at 37 degC by FITC-streptavidin staining based flow cytometry analysis; type: functional; conditions: time 20.0 min
[17] = Stability in human serum assessed as parent compound remaining measured after 12 hrs by LC-SWATH-MS analysis; type: ADME, cell-free; conditions: read-out: Stability
[18] = Stability in human serum assessed as parent compound remaining measured after 24 hrs by LC-SWATH-MS analysis; type: ADME, cell-free; conditions: read-out: Stability

Compound: N=C(N)NCCCC[C@H](NC(=O)[C@@H](N)CS)C(=O)NCCCCC(NC(=O)CCCCCCCCCCNC(=O)CCCC[C@@H]1SC[C@@H]2NC(=O)N[C@@H]21)C(=O)N[C@@H](CCN)C(=O)N1C2CCCCC2C[C@H]1C(=O)N[C@@H](CCCNC(=N)N)C(=O)O (some centres not stated) ({Biotin-Aun}-[ξK]([hArg-Cys])[Dab][Oic(3aξ,7aξ)]R-OH)
Activity (Cell membrane [1]): Active
Activity (MDA-MB-231 [2]): inactive
Activity (MDA-MB-231 [3]): Active
Activity [4]: inactive
Activity (Cell membrane [5]): Active
Activity [6]: Active
Activity (Cell membrane [7]): Active
Activity (MDA-MB-231 [8]): Active

Compound: N=C(N)NCCCC[C@H](NC(=O)[C@@H](N)CS)C(=O)NCCCC[C@H](N)C(=O)N[C@@H](CCN)C(=O)N1C2CCCCC2C[C@H]1C(=O)N[C@@H](CCCNC(=N)N)C(=O)O (some centres not stated) (HELM PEPTIDE1{K.[Dab].[O=C([C@@H]1CC2CCCCC2N1[*:1])[*:2]].R}|PEPTIDE2{C.[N=C(N)NCCCC[C@H](N[*:1])C(=O)[*:2]]}$PEPTIDE1,PEPTIDE2,1:R3-2:R2$$$V2.0)
half-life [9]: < 480 min
Ratio IC50 (Homo sapiens): 5
inhibition [10]: inactive
IC50 (NRP2-VEGA; read-out: IC50): 9 nM
Stability [11]: Unstable
remaining at 8 h [12]: 47%
Activity (MDA-MB-231 [13]): Active
IC50 (VEGA-NRP1; read-out: IC50): 46 nM
Activity (MDA-MB-231 [14]): Active
inhibition [15]: inactive
Activity (MDA-MB-231 [16]): Active

Compound: N=C(N)NCCCC[C@H](N)C(=O)NCCCC[C@H](NC(=O)[C@@H](N)CS)C(=O)N[C@@H](CCN)C(=O)N1C2CCCCC2C[C@H]1C(=O)N[C@@H](CCCNC(=N)N)C(=O)O (some centres not stated) (HELM PEPTIDE1{C.K.[Dab].[O=C([C@@H]1CC2CCCCC2N1[*:1])[*:2]].R}|PEPTIDE2{[N=C(N)NCCCC[C@H](N)C(=O)[*:2]]}$PEPTIDE1,PEPTIDE2,2:R3-1:R2$$$V2.0)
remaining at 12 h [17]: 61%
half-life [9]: ~480 min
Ratio IC50 (Homo sapiens): 5
inhibition [10]: inactive
IC50 (NRP2-VEGA; read-out: IC50): 43 nM
IC50 (NRP2-VEGA; read-out: pIC50 (converted)): 475 nM
Stability [11]: Unstable
Activity (MDA-MB-231 [13]): Active
IC50 (VEGA-NRP1; read-out: IC50): 39 nM
IC50 (VEGA-NRP1; read-out: pIC50 (converted)): 43.1 nM
Activity (MDA-MB-231 [14]): Active
inhibition [15]: inactive
Activity (MDA-MB-231 [16]): Active

Compound: CC[C@H](N)C(=O)N[C@@H](CCCCNC(=O)[C@@H](N)CCCCNC(=N)N)C(=O)N[C@@H](CCN)C(=O)N1C2CCCCC2C[C@H]1C(=O)N[C@@H](CCCNC(=N)N)C(=O)O (some centres not stated) (HELM PEPTIDE1{[Abu].K.[Dab].[O=C([C@@H]1CC2CCCCC2N1[*:1])[*:2]].R}|PEPTIDE2{[N=C(N)NCCCC[C@H](N)C(=O)[*:2]]}$PEPTIDE1,PEPTIDE2,2:R3-1:R2$$$V2.0)
half-life [9]: 120 min
IC50 (VEGA-NRP1; read-out: IC50): 2410 nM

Further lines, with some results ahead:

inhibition (VEGA-NRP1 (Homo sapiens)): 96%
Compound: C[C@@H](O)[C@H](NC(=O)[C@H](CCCNC(=N)N)NC(=O)[C@@H](N)CCC(=O)O)C(=O)N[C@@H](CS)C(=O)N[C@@H](CCCNC(=N)N)C(=O)N[C@@H](CS)C(=O)N[C@@H](CC(=O)O)C(=O)N[C@@H](CCCCN)C(=O)N1CCC[C@H]1C(=O)N[C@@H](CCCNC(=N)N)C(=O)N[C@@H](CCCNC(=N)N)C(=O)O (H-ERTCRCDKPRR-OH)

inhibition (VEGA-NRP1 (Homo sapiens)): 96%
Compound: H-CDKPRR-OH

remaining at 24 h [18]: 0%
remaining at 8 h [12]: 56%
IC50 (VEGA-NRP1; read-out: pIC50 (converted)): 2240 nM
Compound: N=C(N)NCCCC[C@H](N)C(=O)NCC[C@H](N)C(=O)N[C@@H](CCN)C(=O)N1C2CCCCC2C[C@H]1C(=O)N[C@@H](CCCNC(=N)N)C(=O)O (some centres not stated) (HELM PEPTIDE1{[Dab].[Dab].[O=C([C@@H]1CC2CCCCC2N1[*:1])[*:2]].R}|PEPTIDE2{[N=C(N)NCCCC[C@H](N)C(=O)[*:2]]}$PEPTIDE1,PEPTIDE2,1:R3-1:R2$$$V2.0)

Activity (Cell membrane [1]): Active
Activity [4]: inactive
Activity (Cell membrane [5]): Active
Activity [6]: Active
Activity (Cell membrane [7]): Active
Compound: N=C(N)NCCCC[C@H](NC(=O)CCCCCCCCCCNC(=O)CCCC[C@@H]1SC[C@@H]2NC(=O)N[C@@H]21)C(=O)NCCCC[C@H](NC(=O)[C@@H](N)CS)C(=O)N[C@@H](CCN)C(=O)N1C2CCCCC2C[C@H]1C(=O)N[C@@H](CCCNC(=N)N)C(=O)O (stereo partly drawn) (H-CK([hArg-Aun-Biotin])[Dab][Oic(3aξ,7aξ)]R-OH)
Activity (MDA-MB-231 [2]): inactive
Activity (MDA-MB-231 [3]): Active
Activity (MDA-MB-231 [8]): Active
